# How the values were obtained:
# [1] = Pharmacokinetic study, intravenous, rats; type: in vivo; settings: male SD rats, IV 2 mg/kg
# Description: Cimicoxib (cimicoxib) was IV administrated to male SD rats in vivo [2 mg/kg, 2 mg/ml, menstruum: DMSO/PEG 400/30% HP-b-CD ([…])], T1/2 was 3.20 h. The half-life of compound 1 was longer than cimicoxib.
# [2] = test system: mice tail suspension immobility time; assay: Tail suspension test in mice (anti-depression model); type: in vivo, Male Kunming mice
# Description: In Vivo Test: Tail Suspension Test in Mice (Evaluation on an Anti-Depression Model)
# Male Kunming mice, approximately 20 g, were randomized into six groups, i.e. normal group, positive drug group (fluoxetine 20 mg/kg), compound 1: group A 5 mg/kg, group B 10 mg/kg, group C 20 mg/kg, and group D 40 mg/kg.
# Single Dose Test: Mice were normally fed for 1 day and allowed to adapt to the environment. Then the mice were fasted (except water) for 16 hours, and were intragastrically administrated with a single dose of the compound. The normal group was intragastrically administrated with an equivalent amount of distilled water. 40 min after the administration, the mice were inverted and fixed to a tail suspension device, and the distance between the head and the desktop was about 30 cm. Immobility time was recorded with an analysis record system, for the latter 4 min within the 6 min recording period, and was used for statistical analysis.
# (§1) Study with Three-Day Consecutive Dosing: Mice were normally fed for 1 day and allowed to adapt to the environment. Then the mice were intragastrically administrated with the test drug for 3 consecutive days (once per day), and the normal group was intragastrically administrated with an equivalent amount of distilled water. The mice were fasted (except water) for 16 hours before the last dosing. 40 min after the last dosing, the mice were inverted and fixed to the tail suspension device, and the distance between the head and the desktop was about 30 cm. Immobility time was recorded with an analysis record system, for the latter 4 min within the 6 min recording period, and was used for statistical analysis.
# as §1, with “with Seven-Day” for “with Three-Day”, “intragastrically dosed” for “intragastrically administrated with the test drug”, “for 7” for “for 3”, “days (once/day),” for “days (once per day),”, “last administration.” for “last dosing.”, “last administration,” for “last dosing,”
# [3] = test system: mice forced swimming immobility time; assay: Forced swimming test in mice (anti-depression model); type: in vivo, Male Kunming mice
# Description: In Vivo Study: The Forced Swimming Test in Mice (Evaluation on Anti-Depression Model)
# Male Kunming mice, approximately 20 g, were randomized into six groups, i.e. normal group, positive drug group (fluoxetine 20 mg/kg), group A (5 mg/kg Compound 1), group B (10 mg/kg Compound 1), group C (20 mg/kg Compound 1), and group D (40 mg/kg Compound 1).
# Single Dose Test: Mice were normally fed for 1 day and allowed to adapt to the environment. Then the mice were fasted (except water) for 16 hours, and were intragastrically administrated with a single dose of the test drug, and the normal group was intragastrically administrated with an equivalent amount of distilled water. 40 min after administration, the mice were placed in forced swimming test device (swimming environment: pool diameter 12.5 cm cylinder, water temperature 25° C. and water depth 10 cm). Mice swam for six minutes, and the immobility time (i.e., the time during which the limbs were immobile, or only the feet were thrashing or paddling) was recorded with an animal behavioral record system, for the latter 4 min within the 6 min recording period, and was used for statistical analysis.
# (§2) Study with Three-Day Consecutive Dosing: Mice were normally fed for 1 day and allowed to adapt to the environment. Then the mice were intragastrically administrated with the test drug consecutively for three days (once per day). The normal group was intragastrically administrated equivalent amount of distilled water. Mice were fasted (except water) for 16 hours before the last dosing. 40 min after the last dosing, the mice were placed in forced swimming test device (swimming environment: pool diameter 12.5 cm cylinder, water temperature 25° C. and water depth 10 cm). Mice swam for six minutes, and the immobility time (i.e., the time during which the limbs were immobile, or only the feet were thrashing or paddling) was recorded with an animal behavioral record system, for the latter 4 min within the 6 min recording period, and was used for statistical analysis.
# as §2, with “Seven-Day” for “Three-Day”, “seven” for “three”
# [4] = 3 days consecutive administration, 10 mg/kg intragastric, in s (unit assumed)
# [5] = 3 days consecutive administration, 20 mg/kg intragastric, in s (unit assumed)
# [6] = 3 days consecutive administration, 40 mg/kg intragastric, in s (unit assumed)
# [7] = 7 days consecutive administration, 5 mg/kg intragastric, 5 mg/kg, in s (unit assumed)
# [8] = 7 days consecutive administration, 10 mg/kg intragastric, in s (unit assumed)
# [9] = 7 days consecutive administration, 20 mg/kg intragastric, in s (unit assumed)
# [10] = 7 days consecutive administration, 40 mg/kg intragastric, in s (unit assumed)
# [11] = single dose, 10 mg/kg intragastric, 40 min after administration, in s (unit assumed)
# [12] = single dose, 20 mg/kg intragastric, 40 min after administration, in s (unit assumed)
# [13] = single dose, 40 mg/kg intragastric, 40 min after administration, in s (unit assumed)
smiles,measurement,setting,value
"CS(=O)(=O)c1ccc(-n2cnc(Cl)c2-c2ccccc2)nc1 [Compound 1, 2-(4-chloro-5-phenyl-1H-imidazol-1-yl)-5-(methylsulfonyl)pyridine]",t1/2,[1],5.37 ± 0.51 h
same,AUC(0-t),"[1]; rat, in vivo",11400 ± 949 ng·h/mL
same,C0,"[1]; rat, in vivo",1700 ± 259 ng/mL
same,clearance,"[1]; rat, in vivo",2.83 ± 0.27 mL/min/kg
same,half-life,"[1]; rat, in vivo, 2 mg/ml, DMSO/PEG 400/30% HP-b-CD",5.37 h
same,Vd,"[1]; rat, in vivo, read-out: Vss",1.16 ± 0.02 L/kg
same,tail suspension Immobility time,"[2]; 3 days consecutive administration, 5 mg/kg intragastric, in s (unit assumed)",45.36 ± 12.09
same,tail suspension Immobility time,[2]; [4],31.94 ± 8.76
same,tail suspension Immobility time,[2]; [5],33.64 ± 15.78
same,tail suspension Immobility time,[2]; [6],41.36 ± 14.22
same,tail suspension Immobility time,[2]; [7],45.11 ± 16.88
same,tail suspension Immobility time,"[2]; 7 days consecutive administration, 5 mg/kg intragastric, listed as test drug, 5 mg/kg",tendency of reduction in immobility time
same,tail suspension Immobility time,[2]; [8],36.47 ± 15.13
same,tail suspension Immobility time,[2]; [9],29.98 ± 9.87
same,tail suspension Immobility time,[2]; [10],29.70 ± 15.02
same,tail suspension Immobility time,"[2]; single dose, 5 mg/kg intragastric, 40 min after administration, in s (unit assumed)",46.57 ± 16.46
same,tail suspension Immobility time,[2]; [11],47.10 ± 17.93
same,tail suspension Immobility time,[2]; [12],43.25 ± 14.41
same,tail suspension Immobility time,[2]; [13],46.58 ± 15.32
same,forced swimming Immobility time,"[3]; 3 days consecutive administration, 5 mg/kg intragastric, 5 mg/kg",tendency of reduction in forced swimming immobility time
same,forced swimming Immobility time,"[3]; 3 days consecutive administration, 5 mg/kg intragastric, 5 mg/kg, in s (unit assumed)",119.73 ± 24.55
same,forced swimming Immobility time,[3]; [4],91.73 ± 22.08
same,forced swimming Immobility time,[3]; [5],83.12 ± 32.57
same,forced swimming Immobility time,[3]; [6],63.32 ± 30.46
same,forced swimming Immobility time,"[3]; 7 days consecutive administration, 5 mg/kg intragastric, 5 mg/kg",tendency of reduction in forced swimming immobility time
same,forced swimming Immobility time,[3]; [7],102.72 ± 34.07
same,forced swimming Immobility time,[3]; [8],86.40 ± 34.65
same,forced swimming Immobility time,[3]; [9],86.84 ± 30.21
same,forced swimming Immobility time,[3]; [10],83.84 ± 35.50
same,forced swimming Immobility time,"[3]; single dose, 5 mg/kg intragastric, 40 min after administration, 5 mg/kg",tendency of reduction in forced swimming immobility time
same,forced swimming Immobility time,"[3]; single dose, 5 mg/kg intragastric, 40 min after administration, 5 mg/kg, in s (unit assumed)",102.24 ± 27.33
same,forced swimming Immobility time,[3]; [11],92.85 ± 38.81
same,forced swimming Immobility time,[3]; [12],87.55 ± 42.50
same,forced swimming Immobility time,[3]; [13],90.86 ± 39.53
